In PMC12155096 (International Journal of Molecular Sciences, 2025):
Read-outs that look alike come from different tables or passages of the source.

What was measured:
CYP3A4 [1] = target: T1, CYP3A4 (Homo sapiens, UniProt P08684); test: biochemical
human CYP1A2 [2] = target: T2, human CYP1A2 (Homo sapiens, UniProt P05177)
T2 sequence (P05177 1-516): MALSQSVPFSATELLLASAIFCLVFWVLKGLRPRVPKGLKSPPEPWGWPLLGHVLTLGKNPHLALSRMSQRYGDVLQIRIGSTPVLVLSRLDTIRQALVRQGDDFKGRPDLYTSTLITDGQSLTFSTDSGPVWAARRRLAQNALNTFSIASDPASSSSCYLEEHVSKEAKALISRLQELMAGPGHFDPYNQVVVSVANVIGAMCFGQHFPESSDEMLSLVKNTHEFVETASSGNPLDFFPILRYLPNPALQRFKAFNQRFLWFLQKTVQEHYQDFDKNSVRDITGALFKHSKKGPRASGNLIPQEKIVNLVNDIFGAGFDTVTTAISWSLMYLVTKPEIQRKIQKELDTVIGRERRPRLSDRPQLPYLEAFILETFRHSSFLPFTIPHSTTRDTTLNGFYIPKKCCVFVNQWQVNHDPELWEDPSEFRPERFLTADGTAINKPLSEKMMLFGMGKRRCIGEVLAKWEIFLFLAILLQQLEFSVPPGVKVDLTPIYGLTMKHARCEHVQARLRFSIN

[3] = target: Photinus pyralis (firefly) luciferase (Photinus pyralis, UniProt P08659); test: biochemical; type: biochemical; set-up: Luciferase Efficacy: unit not given here
Chain of Photinus pyralis (firefly) luciferase (P08659 whole entry): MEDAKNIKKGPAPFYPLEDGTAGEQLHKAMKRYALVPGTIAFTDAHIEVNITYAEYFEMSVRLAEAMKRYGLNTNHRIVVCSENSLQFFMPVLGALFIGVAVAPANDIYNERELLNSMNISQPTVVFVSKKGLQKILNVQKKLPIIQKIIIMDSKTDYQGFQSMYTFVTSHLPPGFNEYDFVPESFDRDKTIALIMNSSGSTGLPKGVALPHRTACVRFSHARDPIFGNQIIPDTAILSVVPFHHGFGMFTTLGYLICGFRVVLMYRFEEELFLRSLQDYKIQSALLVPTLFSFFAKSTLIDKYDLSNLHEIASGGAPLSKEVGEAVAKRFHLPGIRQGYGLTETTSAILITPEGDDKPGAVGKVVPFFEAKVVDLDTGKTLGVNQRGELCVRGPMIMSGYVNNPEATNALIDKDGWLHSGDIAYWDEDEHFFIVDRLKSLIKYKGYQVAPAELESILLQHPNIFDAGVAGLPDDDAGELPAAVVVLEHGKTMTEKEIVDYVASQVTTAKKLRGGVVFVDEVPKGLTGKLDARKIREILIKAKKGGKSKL

human CYP2D6 = human CYP2D6 (Homo sapiens, UniProt P10635); test: biochemical
Chain of human CYP2D6 (P10635 whole entry): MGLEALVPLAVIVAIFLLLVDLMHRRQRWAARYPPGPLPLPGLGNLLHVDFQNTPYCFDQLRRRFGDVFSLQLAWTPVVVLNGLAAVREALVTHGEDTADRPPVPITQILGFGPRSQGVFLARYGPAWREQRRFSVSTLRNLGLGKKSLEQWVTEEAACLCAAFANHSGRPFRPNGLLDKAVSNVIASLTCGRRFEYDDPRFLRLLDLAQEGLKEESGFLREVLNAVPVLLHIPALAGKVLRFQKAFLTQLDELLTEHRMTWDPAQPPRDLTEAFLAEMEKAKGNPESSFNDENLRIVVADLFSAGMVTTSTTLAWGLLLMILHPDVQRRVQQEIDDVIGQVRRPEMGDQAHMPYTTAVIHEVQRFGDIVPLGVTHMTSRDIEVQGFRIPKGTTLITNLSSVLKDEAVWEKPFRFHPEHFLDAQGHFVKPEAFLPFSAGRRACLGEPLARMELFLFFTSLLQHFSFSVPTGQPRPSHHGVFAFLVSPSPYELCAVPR

human CYP2C19 [4] = target: T3, human CYP2C19 (Homo sapiens, UniProt P33261)
T3 sequence (P33261 whole entry): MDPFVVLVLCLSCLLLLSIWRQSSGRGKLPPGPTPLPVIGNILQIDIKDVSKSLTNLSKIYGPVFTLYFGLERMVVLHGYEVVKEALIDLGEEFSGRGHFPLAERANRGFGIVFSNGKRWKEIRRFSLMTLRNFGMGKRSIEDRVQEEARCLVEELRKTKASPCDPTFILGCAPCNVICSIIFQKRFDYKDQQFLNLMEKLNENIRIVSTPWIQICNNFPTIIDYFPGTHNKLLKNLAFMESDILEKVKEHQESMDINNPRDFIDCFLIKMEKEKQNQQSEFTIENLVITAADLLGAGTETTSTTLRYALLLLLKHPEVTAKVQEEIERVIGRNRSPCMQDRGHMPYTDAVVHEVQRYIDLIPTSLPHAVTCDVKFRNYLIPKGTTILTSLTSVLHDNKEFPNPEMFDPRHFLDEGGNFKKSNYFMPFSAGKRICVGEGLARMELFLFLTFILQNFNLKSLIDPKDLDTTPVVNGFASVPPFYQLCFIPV

human CYP2C9 = human CYP2C9 (Homo sapiens, UniProt P11712); test: biochemical
Chain of human CYP2C9 (P11712 whole entry): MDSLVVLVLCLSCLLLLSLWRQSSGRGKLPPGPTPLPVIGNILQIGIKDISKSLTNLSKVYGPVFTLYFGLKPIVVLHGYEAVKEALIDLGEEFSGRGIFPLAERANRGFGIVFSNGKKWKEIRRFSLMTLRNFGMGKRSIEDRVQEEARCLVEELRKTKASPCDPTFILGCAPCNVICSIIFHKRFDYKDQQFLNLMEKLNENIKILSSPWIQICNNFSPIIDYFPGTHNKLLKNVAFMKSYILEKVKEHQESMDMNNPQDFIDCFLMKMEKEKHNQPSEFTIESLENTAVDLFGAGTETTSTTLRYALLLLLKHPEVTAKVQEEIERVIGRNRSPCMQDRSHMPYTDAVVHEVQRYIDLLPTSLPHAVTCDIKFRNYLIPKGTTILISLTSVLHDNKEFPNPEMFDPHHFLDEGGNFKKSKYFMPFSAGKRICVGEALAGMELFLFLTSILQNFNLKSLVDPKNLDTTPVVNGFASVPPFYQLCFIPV

CYP3A4 [5] = target: T1, CYP3A4
human CYP2C19 [6] = target: T3, human CYP2C19; test: biochemical
human CYP1A2 [7] = target: T2, human CYP1A2; test: biochemical
[8] = CYP3A4 IC50 (half-maximal inhibitory concentration)
[9] = CYP1A2 IC50 (half-maximal inhibitory concentration)
[10] = CYP2C19 IC50 (half-maximal inhibitory concentration)
[11] = CYP2D6 IC50 (half-maximal inhibitory concentration)
[12] = CYP2C9 IC50 (half-maximal inhibitory concentration)

T1 sequence (P08684 whole entry): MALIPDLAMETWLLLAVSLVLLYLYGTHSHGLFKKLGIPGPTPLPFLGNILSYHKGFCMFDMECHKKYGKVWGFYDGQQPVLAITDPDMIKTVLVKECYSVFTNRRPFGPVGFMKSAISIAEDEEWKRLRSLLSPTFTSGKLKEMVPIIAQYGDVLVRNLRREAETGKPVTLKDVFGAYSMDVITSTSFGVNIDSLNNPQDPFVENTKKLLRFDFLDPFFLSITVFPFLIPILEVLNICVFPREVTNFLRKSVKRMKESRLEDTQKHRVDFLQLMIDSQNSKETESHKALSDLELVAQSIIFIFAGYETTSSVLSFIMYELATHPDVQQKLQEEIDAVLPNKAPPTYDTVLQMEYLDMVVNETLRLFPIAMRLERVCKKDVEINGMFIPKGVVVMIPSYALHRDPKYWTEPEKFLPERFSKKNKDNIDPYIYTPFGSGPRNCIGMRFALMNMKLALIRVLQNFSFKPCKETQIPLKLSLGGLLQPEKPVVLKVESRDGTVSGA

O=c1[nH]c2ccccc2n1CCCN1CCN(C(c2ccccc2)c2ccccc2)CC1 [Oxatomide]
AC50 (CYP3A4 [1]; CYP3A4 AC50 (half-maximal activity concentration)): 1.39 µM
CYP1A2 IC50 (human CYP1A2 [2]): Inactive
Luciferase IC50 [3]: Inactive
AC50 (human CYP2D6; CYP2D6 AC50 (half-maximal activity concentration)): 0.62 µM
IC50 (human CYP2D6; CYP2D6 IC50): 0.62 µM
CYP2C19 AC50 (half-maximal activity concentration) (human CYP2C19 [4]): Inconclusive inhibitor
AC50 (human CYP2C9; CYP2C9 AC50 (half-maximal activity concentration)): 25.3 µM
IC50 (human CYP2C9; CYP2C9 IC50): 25.3 µM
CYP3A4 IC50 (CYP3A4 [5]): 1.39 ± 0.16 (164 ± 14) µM
IC50 (human CYP2C19 [6]; CYP2C19 IC50): 33.2 µM

CCN(CC)c1nc(C)cc(OP(=S)(OC)OC)n1 [Pirimiphos-methyl]
IC50 (CYP3A4 [1]; [8]): 2.22 µM
IC50 (human CYP1A2 [7]; [9]): 1.49 µM
Luciferase IC50 (half-maximal inhibitory concentration) [3]: Inactive
IC50 (human CYP2D6): 53.3 µM
IC50 (human CYP2C9): 23.6 µM
IC50 (human CYP2C19 [6]; [10]): 0.19 µM

CCCN(CCOc1c(Cl)cc(Cl)cc1Cl)C(=O)n1ccnc1 [Prochloraz]
IC50 (CYP3A4 [1]; [8]): 0.07 µM
IC50 (human CYP1A2 [7]; [9]): 0.22 µM
Luciferase IC50 (half-maximal inhibitory concentration) [3]: Inactive
IC50 (human CYP2D6; [11]): 0.53 µM
IC50 (human CYP2C9; [12]): 0.81 µM
IC50 (human CYP2C19 [6]; [10]): 0.05 µM

C#CCOS(=O)OC1CCCCC1Oc1ccc(C(C)(C)C)cc1 (centres unmarked) [Propargite]
IC50 (CYP3A4 [1]; [8]): 1.87 µM
IC50 (human CYP1A2 [7]; [9]): 7.75 µM
Luciferase IC50 (half-maximal inhibitory concentration) [3]: Inactive
IC50 (human CYP2D6; [11]): 16 µM
IC50 (human CYP2C9; [12]): 0.49 µM
IC50 (human CYP2C19 [6]; [10]): 0.78 µM

OC(Cc1ccccc1Cl)(Cn1nc[nH]c1=S)C1(Cl)CC1 (centres unmarked) [Prothioconazole]
IC50 (CYP3A4 [1]; [8]): 8 µM
IC50 (human CYP1A2 [7]; [9]): 41.9 µM
IC50 [3]: 65.8 µM
Luciferase Efficacy [3]: 65.83 ± 4.46 (-26 ± 4) %
IC50 (human CYP2D6; [11]): 47.5 µM
IC50 (human CYP2C9; [12]): 0.93 µM
IC50 (human CYP2C19 [6]; [10]): 2.55 µM

CCOP(=S)(OCC)Oc1cnc2ccccc2n1 [Quinalphos]
IC50 (CYP3A4 [1]; CYP3A4 IC50): 4.57 µM
IC50 (human CYP1A2 [7]; CYP1A2 IC50): 2.25 µM
Luciferase IC50 [3]: Inactive
IC50 (human CYP2D6): 38.5 µM
IC50 (human CYP2C9): 0.91 µM
IC50 (human CYP2C19 [6]; CYP2C19 IC50): 0.47 µM

CC1(C)C2(Cl)C(Cl)C(Cl)C(Cl)(C(Cl)Cl)C1(Cl)C2Cl (centres unmarked) [Strobane]
IC50 (CYP3A4 [1]; CYP3A4 IC50): 0.82 µM
IC50 (human CYP1A2 [7]; CYP1A2 IC50): 41.2 µM
Luciferase IC50 [3]: Inactive
IC50 (human CYP2D6; CYP2D6 IC50): 44 µM
IC50 (human CYP2C9; CYP2C9 IC50): 9.89 µM
IC50 (human CYP2C19 [6]; CYP2C19 IC50): 1.59 µM

CCOP(=S)(Oc1cnc(C(C)(C)C)nc1)OC(C)C (centres unmarked) [Tebupirimfos]
IC50 (CYP3A4 [1]; CYP3A4 IC50): 1.5 µM
IC50 (human CYP1A2 [7]; CYP1A2 IC50): 24 µM
Luciferase IC50 [3]: Inactive
IC50 (human CYP2D6): 34.3 µM
IC50 (human CYP2C9): 1.79 µM
IC50 (human CYP2C19 [6]; CYP2C19 IC50): 0.62 µM

COC(=O)c1c(C(F)F)nc(C(F)(F)F)c(C2=NCCS2)c1CC(C)C [Thiazopyr]
IC50 (CYP3A4 [1]; [8]): 1.93 µM
IC50 (human CYP1A2 [7]; [9]): 0.4 µM
Luciferase IC50 (half-maximal inhibitory concentration) [3]: Inactive
IC50 (human CYP2D6; [11]): 54.3 µM
IC50 (human CYP2C9; [12]): 34.3 µM
IC50 (human CYP2C19 [6]; [10]): 5.43 µM

CC(C)(C)C(=O)C(Oc1ccc(Cl)cc1)n1cncn1 (centres unmarked) [Triadimefon]
IC50 (CYP3A4 [1]; [8]): 0.45 µM
IC50 (human CYP1A2 [7]; [9]): 37 µM
Luciferase IC50 (half-maximal inhibitory concentration) [3]: Inactive
IC50 (human CYP2D6; [11]): 51.6 µM
IC50 (human CYP2C9; [12]): 11.3 µM
IC50 (human CYP2C19 [6]; [10]): 1.92 µM

C[C@H]1CCCC(=O)CCC/C=C/c2cc(O)cc(O)c2C(=O)O1 [Zearalenone]
IC50 (CYP3A4 [1]; [8]): 0.12 µM
IC50 (human CYP1A2 [7]; [9]): 25.3 µM
Luciferase IC50 (half-maximal inhibitory concentration) [3]: Inactive
IC50 (human CYP2D6): 46.5 µM
IC50 (human CYP2C9): 5.74 µM
IC50 (human CYP2C19 [6]; [10]): 16.6 µM
